Experimental data published in paper PMC9723620 (2022).
One block for each compound: values may come before it.

Experiments:
[1] = system: A-site RNA (RNA, rRNA) CGGCGUCACACCUCGGGGUGAAGUCGCCG; assay: fluorescent intercalator displacement (FID); details: 100 mM KCl, 4 mM MgCl2, 20 mM Tris-HCl pH 7.0, TO-PRO displaced, RNA 0.5 μM
[2] = system: NEAT1_2 TH (RNA, triplex) AGGUGUUUCUUUUACUGAGUGCAGCCC/UGGCCGCACUCAGGUUUUGCUUUUCACCUUCCCAUCUGUGAAAGAGUGAGCAGGAAAAAGCAAAA; assay: fluorescent intercalator displacement (FID); details: 100 mM KCl, 4 mM MgCl2, 20 mM Tris-HCl pH 7.0, TO-PRO displaced, RNA 0.5 μM
[3] = system: NEAT1_2 TH (RNA, triplex) AGGUGUUUCUUUUACUGAGUGCAGCCC/UGGCCGCACUCAGGUUUUGCUUUUCACCUUCCCAUCUGUGAAAGAGUGAGCAGGAAAAAGCAAAA; assay: fluorescent intercalator displacement (FID) screen; details: 100 mM KCl, 4 mM MgCl2, 20 mM Tris-HCl pH 7.0, 2% DMSO, TO-PRO displaced, RNA 0.25 μM, hit at 10 μM
[4] = system: fragment 1 (f1), biotinylated (RNA, single strand) AGGUGUUUCUUUUACUGAGUGCAGCCC; assay: grating-coupled interferometry (waveRAPID); details: 150 mM NaCl, 4 mM MgCl2; 10 mM HEPES pH 7.4, 0.005% Tween-20, 1% DMSO, 25°C; tested at 10 μM
[5] = system: fragment 2 (f2), biotinylated (RNA, other) UGGCCGCACUCAGGUUUUGCUUUUCACCUUCCCAUCUGUGAAAGAGUGAGCAGGAAAAAGCAAAA; assay: grating-coupled interferometry (waveRAPID); details: 150 mM NaCl, 4 mM MgCl2; 10 mM HEPES pH 7.4, 0.005% Tween-20, 1% DMSO, 25°C; tested at 10 μM
[6] = system: A-site RNA (RNA, rRNA) CGGCGUCACACCUCGGGGUGAAGUCGCCG; assay: fluorescence increase on binding; details: 100 mM KCl, 4 mM MgCl2; 20 mM Tris-HCl pH 7.0; RNA 0.5 μM, equimolar dye; 116.3-fold fluorescence increase
[7] = system: NEAT1_2 TH (RNA, triplex) AGGUGUUUCUUUUACUGAGUGCAGCCC/UGGCCGCACUCAGGUUUUGCUUUUCACCUUCCCAUCUGUGAAAGAGUGAGCAGGAAAAAGCAAAA; assay: fluorescence increase on binding; details: 100 mM KCl, 4 mM MgCl2; 20 mM Tris-HCl pH 7.0; RNA 0.5 μM, equimolar dye; 220.7-fold fluorescence increase
[8] = system: NEAT1_2 TH (5' biotin-TEG, immobilized) (RNA, triplex) AGGUGUUUCUUUUACUGAGUGCAGCCC/UGGCCGCACUCAGGUUUUGCUUUUCACCUUCCCAUCUGUGAAAGAGUGAGCAGGAAAAAGCAAAA; assay: grating-coupled interferometry (waveRAPID); details: 150 mM NaCl, 4 mM MgCl2; 10 mM HEPES pH 7.4, 0.005% Tween-20, 1% DMSO, 25°C; tested at 10 μM

SMILES: NC[C@@H]1O[C@H](O[C@H]2[C@@H](O)[C@H](O[C@@H]3[C@@H](O)[C@H](N)C[C@H](N)[C@H]3O[C@H]3O[C@H](CO)[C@@H](O)[C@H](O)[C@H]3N)O[C@@H]2CO)[C@H](N)[C@@H](O)[C@@H]1O
binding ([1]; fluorescence to 0.08 at 50 and 500 μM): yes
binding ([2]; fluorescence 0.61 at 50, 0.34 at 500 μM): yes

SMILES: CC(=O)NC[C@H]1CN(c2ccc(N3CCOCC3)c(F)c2)C(=O)O1
binding ([1]; no effect at 50 μM): no

SMILES: O=C1Nc2ccc(I)cc2/C1=C/c1cc(Br)c(O)c(Br)c1
binding [3]: yes

SMILES: NCCOc1cc(C(=O)Nc2cc(OCCN)c3ccccc3n2)nc(C(=O)Nc2cc(OCCN)c3ccccc3n2)c1
binding [3]: yes

SMILES: COc1ccc(Br)cc1S(=O)(=O)NC(=O)/C=C/c1ccccc1Cc1ccc2ccccc2c1
binding [3]: yes

SMILES: C[n+]1c(C=C2C=CN(CCC[N+](C)(C)C)c3ccccc32)sc2ccccc21
binding [6]: yes
binding [7]: yes

SMILES: CC1(C)CC(Oc2ccc(-c3ccc(-c4cn[nH]c4)cc3O)nn2)CC(C)(C)N1
binding ([1]; at higher concentration): weak
binding ([2]; at higher concentration): weak

SMILES: O=C(N[C@H](CO)[C@H](O)c1ccc([N+](=O)[O-])cc1)C(Cl)Cl
binding [8]: no
binding ([1]; no effect at 50 μM): no
binding ([2]; no effect at 50 μM): no

SMILES: CN[C@@H]1[C@@H](O)[C@@H](O[C@@H]2[C@@H](O)[C@H](O[C@H]3O[C@H]([C@@H](C)O)[C@@H](O)[C@H](O)[C@H]3N)[C@@H](N)C[C@H]2N)OC[C@]1(C)O
binding ([1]; both concentrations): yes
binding ([2]; fluorescence to 0.72, higher concentration only): weak

SMILES: CNc1ncc(CN2CCCC(c3nc(-c4cccs4)cc(=O)[nH]3)C2)cn1 (centres unmarked)
binding ([1]; two concentrations): no
binding ([2]; two concentrations): no

More lines, now with the values ahead:

binding [3]: yes
SMILES: O=c1c(O)c(-c2ccc(O)c(O)c2)oc2cc(O)cc(O)c12

binding [3]: yes
SMILES: O=C(O)C1=CC(=C(c2ccc(O)c(C(=O)O)c2)c2ccc(O)c(C(=O)O)c2)C=CC1=O

binding [4]: no
binding [5]: no
binding [3]: yes
SMILES: Cc1cc(O)c2c(c1)C(=O)c1cc(O)cc(O)c1C2=O

binding [8]: no
binding ([3]; not confirmed by GCI): yes
SMILES: CC(=O)c1c(O)c(C)c(O)c(Cc2c(O)c3c(c(C(=O)/C=C/c4ccccc4)c2O)OC(C)(C)C=C3)c1O

binding [3]: yes
SMILES: O=c1c(O)c(-c2cc(O)c(O)c(O)c2)oc2cc(O)cc(O)c12

binding [3]: yes
SMILES: O=C1c2c(O)ccc(O)c2C(=O)c2c(NCCNCCO)ccc(NCCNCCO)c21
